Reference: US5773236A, “Assay for glutathiane transferase using polyhaloaryl-substituted reporter molecules” (Molecule Probes, Inc., priority 1997, dated 1998)

Tests used:
[1] = system: glutathione transferase (GST); assay: Reactivity with glutathione catalyzed by glutathione transferase, TLC (Example 50); assay type: biochemical
Experimental: The suitability of Compound 1 (Example 1) and 5-(pentachlorobenzoylamino)fluorescein (Compound 48) as substrates for glutathione transferase (GST) in the presence of excess glutathione (GSH) is tested in vitro as follows: 5 mM GSH, 0.5 mM substrate (Compound 1 or Compound 48) and 20 micrograms GST (Sigma #G-6511, 70 units/mg) are combined in 0.1M phosphate buffer, pH 8.0, for 1 hour at 37° C. The reaction is terminated by spotting approximately 3 μL on silica gel TLC plates. The plate is developed using 1-butanol: methanol: water (3:1:1). […] Analysis of the reaction mixture by HPLC as in Example 52 confirms that the reaction product of Compound 1 with GSH is identical to the authentic Compound 1-GSH adduct as prepared in Example 45 (Compound 45).

GST [2] = assay: HPLC analysis of the in vitro reaction mixture (Example 52); assay type: biochemical; conditions: with GST, absorbance at 500 nm
Experimental: To determine whether a compound is a selective substrate for glutathione transferase, a 2 mM ethanol stock solution of a polyhalogenated derivative (for example the series of butylbenzamides described in Example 49), reduced glutathione (phosphate buffer stock solution, 5 mM) and glutathione S-transferase (phosphate buffer stock solution, 1 unit/mL) are incubated at 25° C. in the mixture of 98% 0.1M K2 HPO4 -KH2 PO4 buffer (pH7.5) that contains 1 mM EDTA and 2% ethanol for 2 h. The reaction is then stopped by adding 10% H2 O2.
Reaction mixtures with and without GST using Compound 1 as the substrate, are prepared as described in Example 48. The solutions are mixed overnight with three volumes of ethyl acetate followed by centrifugation at 15,000×g for 30 min to separate the organic and aqueous layers. HPLC analysis using a Rainin HPLC equipped with a C18, 5 μm, 100 Å, 4.6×250 mm MICROSORB-MV reverse phase column. Products are separated in 30 min with a gradient of 5% to 95% solvent B in Solvent A at a flow rate of 1 mL/min, where solvent A is 0.1M triethylammonium acetate, pH 7.0, and solvent B is acetonitrile (see FIG. 1). Products are detected by reading the absorbance at 500 nm. Peaks are identified and, if desired, quantitated by comparing retention times with authentic samples of the glutathione adduct of Compound 45 (Example 45).

β-galactosidase = assay: Reactivity with thiol groups of proteins (Example 51); assay type: biochemical
Experimental: To test the specificity of the Compound 1 reaction with GSH versus thiol-containing proteins, β-galactosidase (a protein that has several free thiols) is dissolved at 5 mg/mL in deoxygenated 0.1M phosphate, 0.1M NaCl, pH 7.5, and reacted under anaerobic conditions with 5-(pentafluorobenzoylamino)fluorescein diacetate (Compound 4, Example 3) or Compound 1 dissolved at 10 mg/mL in DMSO at a molar ratio of the reagent to protein of 15. This assay is performed both in the presence and absence of 30 mM N-ethyl maleimide (NEM) as an effective thiol-blocking reagent. The reactions are incubated at room temperature for 1 hour, stopped by the addition of hydroxylamine, pH 9 to a final concentration of 0.15M, and incubated for 2 more hours to hydrolyze the acetate groups. […] Consequently, no reaction of either Compound 4 or Compound 1 with β-galactosidase is detected under the described conditions.

GST [3] = assay: Quantitation of GST in enzymatic reactions, TLC (Example 55); assay type: biochemical; conditions: excess GSH, 2 μL spotted on TLC
Experimental: (§1) A set of reactions as described in Example 48 are performed using limiting concentrations of GSH (0.1 μM-1 mM), to measure the range of sensitivity of the assay for quantitating GSH. Alternatively, the reaction is performed using excess GSH and limiting GST (0.1 μg/mL-20 μg/mL) to determine the suitability of the method to detect and quantitate glutathione transferase activity of isolated enzymes or of GST-fusion proteins.
(§2) In one hour reactions at 37° C., using 0.5 mM Compound 1 (Example 1) as the substrate, 10 μg/mL GST and limiting GSH, the minimum amount of fluorescent Compound 1-GSH adduct (Compound 45) detectable by simple illumination with a long wavelength UV hand lamp corresponds to ~2-4 picomoles of GSH. When using excess GSH and variable amounts of GST, it is possible to detect by visible inspection the reaction product in solutions containing 5 μg/mL of enzyme spotted on TLC in 2 μL amounts: this spot corresponds to ~10 ng of GST. […] Quantitative measurement of the amount of product formed can be performed by either HPLC (Example 52), using a plate scanner (Example 53) or by extraction of the scraped silica gel spots into methanol or pH 8.0 buffer and measurement of the fluorescence against that of a series of dilutions of the authentic adduct (Example 45) in the same buffer using a fluorometer or microplate reader.

[4] = system: glutathione transferase (endogenous GST in BPAE cell lysates); assay: Determination of GST activity in cell extracts (Example 56); assay type: biochemical, Bovine
Experimental: (§3) Cultures of BPAE cells are trypsinized, pelleted, washed once in PBS and resuspended in 200 μL of distilled water in numbers from 200 to 1,000,000. The cells are lysed by repeated freezing and thawing and spun for 10 min. in a microfuge to eliminate the insoluble particles from the lysate, which contains both GSH and GST.
The assay for the amount of GST activity present in cell lysates (endogenous GST) is performed using the same system as above with the exception that 5 mM GSH is added to the reaction mixture to ensure that there is a sufficient excess of GSH to saturate the enzyme. The reaction is incubated for one hour at 37° C. and 2 μL of each sample are spotted on TLC plates and developed as described in Example 48. Product formation is quantitated using a plate scanner as for GSH determination (as in Example 53). […] Similarly, this assay system can be used to quantitate GST-fusion proteins.

[5] = Quantitation of GSH in enzymatic reactions, TLC (Example 55); assay type: biochemical; conditions: 0.5 mM Compound 1, 10 μg/mL GST, limiting GSH, 1 hour, 37° C., UV hand lamp
Experimental: as §1, §2

GSH in BPAE cell lysate = assay: Determination of GSH in cell extracts (Example 56); assay type: biochemical, Bovine; conditions: 0.2 mM Compound 1, 5 μg GST, 2 hours, 37° C.; FIG. 3
Experimental: as §3
To 150 μL of the lysate are added 5.5 μL of 1.8M MOPS pH 7.5, Compound 1 at the final concentration of 0.2 mM, 5 μg GST and distilled water to obtain the final volume of 200 μL. The reaction mixtures are incubated for 2 hours at 37° C. and analyzed by TLC by spotting 2 μL of each sample and developing as described in Example 48. The spots corresponding to the product formed by the different amounts of cells, because of their endogenous GSH is quantitated on a plate scanner as described in Example 53. […] Quantitation of GSH can also be performed by separating the product from the reaction mixture by HPLC as in Example 52.

CRE BAG 2 cells [6] = assay: Peptidase substrates in live cells, fluorescence microscopy (Example 59); assay type: cell-based; conditions: 1 μM, 0.5 μM or 0.1 μM, 37° C., 30 minutes
Experimental: CRE BAG 2 cells obtained from American Type Culture Collection Co., Rockville, Md. are used. They are grown in a humidified atmosphere of 5% CO2 in D-MEM supplemented with 10% calf serum, 50 μg/mL gentamycin, 300 μg/mL L-glutamine and 10 mM HEPES, pH 7.4. 1 mM stock solutions of Compound 13-Leu (Example 13) and Compound 13-Arg substrate are prepared in DMSO. CRE BAG 2 cells are trypsinized, washed with phosphate-buffered saline, pH 7.2 and resuspended in 1 mL of the same buffer. 1 μL, 0.5 μL or 0.1 μL of the stock reagents is added to 1 mL of the cell suspension to obtain a final concentration of 1 μM, 0.5 μM or 0.1 μM. Incubation is carried out at 37° C. for 30 minutes. Cells are centrifuged to form a pellet, the supernatant is discarded and the cells are washed with PBS, pH 7.2 and suspended in the same buffer. Cells are mounted on slides and observed by fluorescence microscopy using filters optimized for fluorescein.

P3×63AG8 cells = assay: Peptidase substrate in live cells, flow cytometry (Example 58); assay type: cell-based; conditions: 1 μM, 37° C., 30 minutes
Experimental: P3×63AG8 cells obtained from American Type Culture Collection Co., Rockville, Md. are used. They are grown in a humidified atmosphere of 5% CO2 in Dulbecco's modified Eagle's medium (D-MEM) supplemented with 10% calf serum, 50 μg/mL gentamycin, 300 μg/mL L-glutamine and 10 mM HEPES, pH 7.4. Compound 13-Arg (Prepared as in Examples 12 and 13) is dissolved at 1 mM in DMSO. The P3×63AG8 cells are trypsinized, washed with phosphate-buffered saline (PBS), pH 7.2 and resuspended in 1 mL of the same buffer. 1 μL of the stock reagent is added to 1 mL of the cell suspension to obtain a final concentration of 1 μM. Incubation is carried out at 37° C. for 30 minutes. Cells are centrifuged to form a pellet, the supernatant is discarded, the cells are washed twice with PBS, pH 7.2 and resuspended in 300 μL of the same buffer. Cells are analyzed by flow cytometry using the Becton-Dickinson FACS Vantage flow cytometer.

CRE BAG 2 cells [7] = assay: Marker gene expression by flow cytometry, CRE BAG 2 (Example 62); assay type: cell-based; conditions: 0.2 mM dye, 37° C., 30 minutes
Experimental: (§4) NIH-3T3 and CRE BAG2 cells are maintained as in Example 61. A 10 mM stock solution of (((3 -(2-pentafluorobenzoyl)amino)ethyl)amino)carbonyl)-umbelliferyl β-D-galactopyranoside (Compound 37; Example 37) is prepared in DMF. A 10 mM stock solution of 4-chloromethylcoumarin β-D-galactopyranoside (CMCG; Molecular Probes #D-2921) is prepared in a 1:1 mixture of DMSO and water. NIH-3T3 and CRE BAG2 cells are trypsinized, washed with phosphate buffered saline (PBS), pH 7.2 and resuspended in D-MEM with 10% BCS. To separate 1 mL cell suspensions are added the dye stock solutions to obtain final concentrations of 0.2 mM dye. Incubation is carried out at 37° C. for 30 minutes. Cells are centrifuged to form a pellet, the supernatant is discarded and the cells are washed twice with PBS, pH 7.2 and suspended in the same buffer. Cells are analyzed by flow cytometry using a Becton-Dickinson FACS Vantage flow cytometer. […] However, CRE BAG 2 cells stained with the Compound 37 show fluorescence that is greater than 25-fold that shown by autofluorescent control cells. For the CRE BAG 2 cells stained with CMCG, the fluorescence intensity is only 8-fold greater than that of the autofluorescent control cells.

NIH-3T3 cells = assay: Marker gene expression by flow cytometry, NIH-3T3 (Example 62); assay type: cell-based; conditions: 0.2 mM dye, 37° C., 30 minutes
Experimental: as §4

O=C1OC2(c3ccc(O)cc3Oc3cc(O)ccc32)c2ccc(NC(=O)c3c(F)c(F)c(F)c(F)c3F)cc21 [Compound 1, 5-(pentafluorobenzoylamino)fluorescein]
adduct formation with glutathione in presence of GST ([1]; 5 mM GSH, 0.5 mM substrate, 20 micrograms GST, pH 8.0, 1 hour, 37° C.): forms a fluorescent adduct with glutathione | reaction in control without GST ([1]; GST omitted): very low or no reaction | products in aqueous layer by HPLC (GST [2]): two major peaks with elution times corresponding to the Compound 45 and to the unreacted Compound 1 | fluorescent proteins formed, gel electrophoresis (β-galactosidase; molar ratio of reagent to protein 15): no fluorescent proteins are formed | reaction with β-galactosidase, TLC (β-galactosidase; molar ratio of reagent to protein 15, pH 7.5, 1 hour, with and without 30 mM NEM): no reaction | amount of GST corresponding to detectable spot (GST [3]): ~ 10 ng | enzyme (GST) concentration detectable by visible inspection (GST [3]; variable GST, 1 hour, 37° C.): 5 µg/mL | usefulness for determination of GST activity in cell lysates ([4]; 5 mM GSH, one hour, 37° C., FIG. 4): useful for the determination of the activity of GST activity in cells lysates | adduct formation in absence of enzyme ([4]; high concentration of both substrate and GSH): a trace amount of adduct forms | minimum amount of adduct detectable, corresponding to GSH [5]: 2-4 picomoles | plot of fluorescence intensity of Compound 1-GSH adduct versus number of cells (GSH) (GSH in BPAE cell lysate): good linearity

N=C(N)NCCC[C@H](N)C(=O)Nc1ccc2c(c1)Oc1cc(NC(=O)c3c(F)c(F)c(F)c(F)c3F)ccc1C21OC(=O)c2ccccc21 (stereo partly drawn) [Compound 13-Arg]
staining of cells, fluorescence microscopy (CRE BAG 2 cells [6]): punctate green fluorescence associated with organelles | cell fluorescence (FL 1 channel) (P3×63AG8 cells): fluorescence levels greater than the cell's autofluorescence

O=C(NCCNC(=O)c1cc2ccc(O[C@@H]3O[C@H](CO)[C@H](O)[C@H](O)[C@H]3O)cc2oc1=O)c1c(F)c(F)c(F)c(F)c1F [Compound 37, ((((3-(2-pentafluorobenzoyl)amino)ethyl)amino)carbonyl)umbelliferyl β-D-galactopyranoside]
fluorescence relative to autofluorescent control cells (CRE BAG 2 cells [7]): greater than 25 fold | fluorescence versus autofluorescent cells (NIH-3T3 cells): do not show fluorescence greater than that observed for autofluorescent cells
